Data reported in the NIST ThermoML archive (doi:10.1016/j.jct.2009.04.002).
“And” between values parts separate entries of the source, which are not always exact repeats. Identical values can stand only once.

Conditions: Liquid

CC(C)CCCCCCCOC(=O)c1ccccc1C(=O)OCCCCCCCC(C)C
Conditions | mass density, SVM3000 rotational viscometer | viscosity, Rotational Automated Viscometer
278.15 K | 977.3 kg/m3 and 977.5 kg/m3 and 977.1 kg/m3 | 404.6 mPa·s and 413.1 mPa·s and 412.2 mPa·s
283.15 K | 973.8 kg/m3 and 974 kg/m3 and 973.5 kg/m3 | 261.2 mPa·s and 267 mPa·s and 266.2 mPa·s
288.15 K | 970.2 kg/m3 and 970.4 kg/m3 and 969.9 kg/m3 | 175.9 mPa·s and 179.4 mPa·s and 178.9 mPa·s
293.15 K | 966.7 kg/m3 and 966.9 kg/m3 and 966.4 kg/m3 | 122.3 mPa·s and 124.5 mPa·s and 124.4 mPa·s
298.15 K | 963.2 kg/m3 and 963.4 kg/m3 and 962.9 kg/m3 | 87.52 mPa·s and 89.06 mPa·s and 88.94 mPa·s
303.15 K | 959.7 kg/m3 and 959.8 kg/m3 and 959.4 kg/m3 | 64.31 mPa·s and 65.45 mPa·s and 65.32 mPa·s
308.15 K | 956.2 kg/m3 and 956.3 kg/m3 and 955.9 kg/m3 | 48.46 mPa·s and 49.29 mPa·s and 49.16 mPa·s
313.15 K | 952.7 kg/m3 and 952.8 kg/m3 and 952.4 kg/m3 | 37.35 mPa·s and 37.97 mPa·s and 37.87 mPa·s
318.15 K | 949.2 kg/m3 and 949.3 kg/m3 and 948.9 kg/m3 | 29.38 mPa·s and 29.83 mPa·s and 29.75 mPa·s
323.15 K | 945.7 kg/m3 and 945.8 kg/m3 and 945.3 kg/m3 | 23.51 mPa·s and 23.87 mPa·s and 23.79 mPa·s
328.15 K | 942.2 kg/m3 and 941.8 kg/m3 | 19.13 mPa·s and 19.41 mPa·s and 19.35 mPa·s

Conditions | mass density, Vibrating tube method | viscosity, Falling or rolling sphere viscometry
283.15 K, 100 kPa | 973.4 kg/m3 and 973.5 kg/m3 and 973.1 kg/m3 | –
283.15 K, 1000 kPa | 973.7 kg/m3 and 974 kg/m3 and 973.6 kg/m3 | –
283.15 K, 5000 kPa | 975.9 kg/m3 and 976.2 kg/m3 and 975.7 kg/m3 | –
283.15 K, 10000 kPa | 978.4 kg/m3 and 978.8 kg/m3 and 978.3 kg/m3 | –
283.15 K, 20000 kPa | 983.5 kg/m3 and 983.9 kg/m3 and 983.4 kg/m3 | –
283.15 K, 30000 kPa | 988.3 kg/m3 and 988.6 kg/m3 and 988.1 kg/m3 | –
283.15 K, 40000 kPa | 992.8 kg/m3 and 993.1 kg/m3 and 992.7 kg/m3 | –
283.15 K, 50000 kPa | 997.2 kg/m3 and 997.5 kg/m3 and 997 kg/m3 | –
283.15 K, 60000 kPa | 1001.4 kg/m3 and 1001.7 kg/m3 and 1001.3 kg/m3 | –
283.15 K, 70000 kPa | 1005.4 kg/m3 and 1005.8 kg/m3 | –
298.15 K, 100 kPa | 963 kg/m3 and 963.2 kg/m3 and 962.8 kg/m3 | –
298.15 K, 1000 kPa | 963.4 kg/m3 and 963.8 kg/m3 and 963.3 kg/m3 | –
298.15 K, 5000 kPa | 965.7 kg/m3 and 966.1 kg/m3 | –
298.15 K, 10000 kPa | 968.4 kg/m3 and 968.9 kg/m3 and 968.5 kg/m3 | –
298.15 K, 20000 kPa | 973.7 kg/m3 and 974.2 kg/m3 and 973.8 kg/m3 | –
298.15 K, 30000 kPa | 978.7 kg/m3 and 979.1 kg/m3 | –
298.15 K, 40000 kPa | 983.4 kg/m3 and 983.8 kg/m3 | –
298.15 K, 50000 kPa | 988 kg/m3 and 988.3 kg/m3 and 987.9 kg/m3 | –
298.15 K, 60000 kPa | 992.4 kg/m3 and 992.8 kg/m3 and 992.3 kg/m3 | –
298.15 K, 70000 kPa | 996.6 kg/m3 and 997 kg/m3 | –
303.15 K, 100 kPa | – | 65 mPa·s and 64.6 mPa·s
303.15 K, 1000 kPa | – | 66.4 mPa·s and 66 mPa·s
303.15 K, 5000 kPa | – | 72.9 mPa·s and 72.6 mPa·s
303.15 K, 10000 kPa | – | 82 mPa·s and 81.7 mPa·s
303.15 K, 20000 kPa | – | 103 mPa·s
303.15 K, 30000 kPa | – | 130 mPa·s and 129 mPa·s
303.15 K, 40000 kPa | – | 162 mPa·s
303.15 K, 50000 kPa | – | 202 mPa·s and 201 mPa·s
303.15 K, 60000 kPa | – | 251 mPa·s and 250 mPa·s
313.15 K, 100 kPa | – | 38 mPa·s and 38.5 mPa·s
313.15 K, 1000 kPa | – | 38.7 mPa·s and 39.3 mPa·s
313.15 K, 5000 kPa | – | 42.2 mPa·s and 42.8 mPa·s
313.15 K, 10000 kPa | – | 46.9 mPa·s and 47.6 mPa·s
313.15 K, 20000 kPa | – | 57.8 mPa·s and 58.8 mPa·s
313.15 K, 30000 kPa | – | 71.1 mPa·s and 72.4 mPa·s
313.15 K, 40000 kPa | – | 87.2 mPa·s and 88.8 mPa·s
313.15 K, 50000 kPa | – | 107 mPa·s and 109 mPa·s
313.15 K, 60000 kPa | – | 130 mPa·s and 132 mPa·s
323.15 K, 100 kPa | 945.4 kg/m3 and 945.7 kg/m3 and 945.2 kg/m3 | –
323.15 K, 1000 kPa | 945.8 kg/m3 and 946.3 kg/m3 | –
323.15 K, 5000 kPa | 948.4 kg/m3 and 948.8 kg/m3 and 948.3 kg/m3 | –
323.15 K, 10000 kPa | 951.5 kg/m3 and 951.9 kg/m3 and 951.4 kg/m3 | –
323.15 K, 20000 kPa | 957.4 kg/m3 and 957.9 kg/m3 | –
323.15 K, 30000 kPa | 962.9 kg/m3 and 963.3 kg/m3 and 962.8 kg/m3 | –
323.15 K, 40000 kPa | 968.1 kg/m3 and 968.5 kg/m3 and 968 kg/m3 | –
323.15 K, 50000 kPa | 973.1 kg/m3 and 973.4 kg/m3 and 973 kg/m3 | –
323.15 K, 60000 kPa | 977.8 kg/m3 and 978.1 kg/m3 and 977.7 kg/m3 | –
323.15 K, 70000 kPa | 982.3 kg/m3 and 982.6 kg/m3 and 982.2 kg/m3 | –
333.15 K, 100 kPa | 938.4 kg/m3 and 938.7 kg/m3 and 938.2 kg/m3 | 16.1 mPa·s and 15.5 mPa·s and 16 mPa·s
333.15 K, 1000 kPa | 938.9 kg/m3 and 939.3 kg/m3 and 938.8 kg/m3 | 16.4 mPa·s and 15.7 mPa·s and 16.3 mPa·s
333.15 K, 5000 kPa | 941.6 kg/m3 and 942 kg/m3 and 941.5 kg/m3 | 17.7 mPa·s and 17 mPa·s and 17.6 mPa·s
333.15 K, 10000 kPa | – | 19.5 mPa·s and 18.6 mPa·s and 19.3 mPa·s
